The values below come from patent US9453226B2, “Protection of cells from Alu-RNA-induced degeneration and inhibitors for protecting cells” (UNIVERSITY OF KENTUCKY RESEARCH FOUNDATION, priority 2011, dated 2016).

Data set [1] relates to RPE. Put plainly: pAlu-induced RPE degeneration in wild-type mice, inhibitors given intravitreously. The settings on record: WT mice, subretinal pAlu, inhibitor intravitreous, fundus photographs and ZO-1 flat mounts. It counts as in vivo. As for the experimental part: (§1) Subretinal injection and imaging. Subretinal injections (1 μL) were performed using a Pico-Injector (PLI-100, Harvard Apparatus). Plasmids were transfected in vivo using 10% Neuroporter (Genlantis). Fundus imaging was performed on a TRC-50 IX camera (Topcon) linked to a digital imaging system (Sony). RPE flat mounts were immunolabeled using antibodies against zonula occludens-1 (Invitrogen).
(§2) Retinal photographs of dilated mouse eyes were taken with a TRC-50 IX camera (Topcon) linked to a digital imaging system (Sony).
(§3) Human eyes fixed in 2-4% paraformaldehyde were prepared as eyecups, cryoprotected in 30% sucrose, embedded in optimal cutting temperature compound (Tissue-Tek OCT; Sakura Finetek), and cryosectioned into 10 μm sections. Depigmentation was achieved using 0.25% potassium permanganate and 0.1% oxalic acid. Immunohistochemical staining was performed with the rabbit antibody against NLRP3 (1:100, Sigma Aldrich) or rabbit antibody against Caspase-1 (prediluted, AbCam). Isotype IgG was substituted for the primary antibody to assess the specificity of the staining. Bound antibody was detected with biotin-conjugated secondary antibodies, followed by incubation with ABC reagent and visualized by Vector Blue (Vector Laboratories). Levamisole (Vector Laboratories) was used to block endogenous alkaline phosphatase activity. Slides were washed in PBS, counterstained with neutral red (Fisher Scientific), rinsed with deionized water, air dried, and then mounted in Vectamount (Vector Laboratories). Fluorescent labeling of human tissue was performed with the rabbit antibody against PYCARD (1:50, Clone N-15, Santa Cruz Biotechnology) Immunolabeling was visualized by fluorescently conjugated anti-rabbit secondary antibody (Invitrogen). Tissue autofluorescence was quenched by incubating the sections in 0.3% Sudan black (Fisher Scientific). Sections were mounted in Vectashield with DAPI (Vector Laboratories). Mouse RPE/choroid flat mounts were fixed with 4% paraformaldehyde or 100% methanol, stained with rabbit antibodies against human zonula occludens-1 (1:100, Invitrogen) and visualized with Alexa594 (Invitrogen). All images were obtained using the Leica SP-5 or Zeiss Axio Observer Z1 microscopes.
(§4) Subretinal injections (1 μL) in mice were performed using a Pico-Injector (PLI-100, Harvard Apparatus). In vivo transfection of plasmids coding for two different Alu sequences (pAlu) or empty control vector (pNull) (Bennett et al., 2008; Kaneko et al., 2011; Shaikh et al., 1997) was achieved using 10% Neuroporter (Genlantis). AAV1-BEST1-Cre (Alexander and Hauswirth, 2008) or AAV1-BEST1-GFP were injected at 1.0×10^11 pfu/mL and in vitro transcribed Alu RNA was injected at 0.3 mg/mL.
siRNAs formulated in siRNA buffer (20 mM KCL, 0.2 mM MgCl2 in HEPES buffer at pH 7.5; Dharmacon) or phosphate buffered saline (PBS; Sigma-Aldrich); the TLR4 antagonist Ultra Pure Rhodobacter sphaeroides LPS (LPS-RS, InvivoGen), a peptide inhibitor of MyD88 homodimerization IMG-2005 (IMGENEX), control inhibitor (IMGENEX), recombinant IL-18 (Medical & Biological Laboratories), neutralizing rat antibodies against mouse IL-1β (IMGENEX), neutralizing rat antibodies against mouse IL-18 (Medical & Biological Laboratories), isotype control IgGs (R&D Systems or eBioscience as appropriate), Caspase-1 inhibitor Z-WEHD-FMK (R&D Systems), Caspase control inhibitor Z-FA-FMK (R&D Systems), DPI (Enzo Life Sciences), Mito-TEMPO (Enzo Life Sciences), MitoQ and dTPP (both adsorbed to cyclodextrin and provided by M.P. Murphy, MRC Mitochondrial Biology Unit), and gp91ds-tat and scrambled gp91 ds-tat (both Anaspec), were dissolved in phosphate buffered saline (PBS; Sigma-Aldrich) or dimethyl sulfoxide (DMSO; Sigma-Aldrich), and injected into the vitreous humor in a total volume of 1 μL with a 33-gauge Exmire microsyringe (Ito Corporation). […] As a control, Luc siRNA-chol (17+2 nt) was used with identical dosages. […]

Data set [2] relates to human RPE cells. The settings on record: peptide 100 μM. Here is the method: All cell cultures were maintained at 37° C. and 5% CO2. Primary mouse RPE cells were isolated as previously described (Yang et al., 2009) and grown in Dulbecco Modified Eagle Medium (DMEM) supplemented with 20% FBS and standard antibiotics concentrations. Primary human RPE cells were isolated as previously described (Yang et al., 2008) and maintained in DMEM supplemented with 10% FBS and antibiotics. HeLa cells were maintained in DMEM supplemented with 20% FBS and standard antibiotics concentrations. THP-1 cells were cultured in RPMI 1640 medium supplemented with 10% FBS and antibiotics.
(§5) MTS assays were performed using the CellTiter 96 AQueous One Solution Cell Proliferation Assay (Promega) according to the manufacturer's instructions. For examining the cytoprotective effect of glycine in Alu RNA induced cell death, human RPE cells were transfected with pNull/pAlu. At 6 h post-transfection the cells were incubated with complete media containing glycine (5 mM) or vehicle, and cell viability was assessed after 24 h. Similarly, human RPE cells primed with LPS (5 μg/ml for 6 h) were treated with ATP (25 μM) in the presence of glycine containing media (5 mM). 30 min post ATP cell viability was assessed as described above.
MTS assays were performed using the CellTiter 96 AQueous One Solution Cell Proliferation Assay (Promega) according to the manufacturer's instructions.

Data set [3] deals with RPE. Description: Alu RNA-induced RPE degeneration in wild-type mice, inhibitors given intravitreously. It counts as in vivo. The settings on record: WT mice, subretinal Alu RNA, inhibitor intravitreous. As for the experimental part: as §1, §2, §3, §4
siRNAs formulated in siRNA buffer (20 mM KCL, 0.2 mM MgCl2 in HEPES buffer at pH 7.5; Dharmacon) or phosphate buffered saline (PBS; Sigma-Aldrich); the TLR4 antagonist Ultra Pure Rhodobacter sphaeroides LPS (LPS-RS, InvivoGen), a peptide inhibitor of MyD88 homodimerization IMG-2005 (IMGENEX), control inhibitor (IMGENEX), recombinant IL-18 (Medical & Biological Laboratories), neutralizing rat antibodies against mouse IL-1β (IMGENEX), neutralizing rat antibodies against mouse IL-18 (Medical & Biological Laboratories), isotype control IgGs (R&D Systems or eBioscience as appropriate), Caspase-1 inhibitor Z-WEHD-FMK (R&D Systems), Caspase control inhibitor Z-FA-FMK (R&D Systems), DPI (Enzo Life Sciences), Mito-TEMPO (Enzo Life Sciences), MitoQ and dTPP (both adsorbed to cyclodextrin and provided by M.P. Murphy, MRC Mitochondrial Biology Unit), and gp91ds-tat and scrambled gp91 ds-tat (both Anaspec), were dissolved in phosphate buffered saline (PBS; Sigma-Aldrich) or dimethyl sulfoxide (DMSO; Sigma-Aldrich), and injected into the vitreous humor in a total volume of 1 μL with a 33-gauge Exmire microsyringe (Ito Corporation). […] As a control, Luc siRNA-chol (17+2 nt) was used with identical dosages.

Another data set relates to NLRP3 and IL18 mRNAs. Description: NLRP3 and IL18 mRNA in human RPE cells (real-time RT-PCR). It counts as cell-based. The text has this:
Transcript abundance was quantified by real-time RT-PCR using an Applied Biosystems 7900 HT Fast Real-Time PCR system by the 2^−ΔΔCt method.
Total RNA was extracted from tissues or cells using Trizol reagent (Invitrogen) according to manufacturer's recommendations, DNase treated and reverse transcribed (QuantiTect, Qiagen). The RT products (cDNA) were amplified by real-time quantitative PCR (Applied Biosystems 7900 HT Fast Real-Time PCR system) with Power SYBR green Master Mix. Oligonucleotide primers specific for human IL1B (forward 5′-[…]-3′ and reverse 5′-[…]-3′), human IL18 (forward 5′-[…]-3′ and reverse 5′-[…]-3′), human NLRP3 (forward 5′-[…]-3′ and reverse 5′-[…]-3′), human PYCARD (forward 5′-[…]-3′ and reverse 5′-[…]-3′), human VDAC1 (forward 5′-[…]-3′ and reverse 5′-[…]-3′), human VDAC2 (forward 5′-[…]-3′ and reverse 5′-[…]-3′), human VDAC3 (forward 5′-[…]-3′ and reverse 5′-[…]-3′), human 18S rRNA (forward 5′-[…]-3′ and reverse 5′-[…]-3′), mouse Myd88 (forward 5′-[…]-3′ and reverse 5′-[…]-3′), mouse Nlrp3 (forward 5′-[…]-3′ and reverse 5′-[…]-3′), mouse Il18 (forward 5′-[…]-3′ and reverse 5′-[…]-3′), and mouse 18S rRNA (forward 5′-[…]-3′ and reverse 5′-[…]-3′) were used. The QPCR cycling conditions were 50° C. for 2 min, 95° C. for 10 min followed by 40 cycles of a two-step amplification program (95° C. for 15 s and 58° C. for 1 min). At the end of the amplification, melting curve analysis was applied using the dissociation protocol from the Sequence Detection system to exclude contamination with unspecific PCR products. […] For negative controls, no RT products were used as templates in the QPCR and verified by the absence of gel-detected bands. Relative expressions of target genes were determined by the 2^−ΔΔCt method.
Background: In qPCR the cycle at which signal appears reflects the starting amount.

The subject of data set [4] is human RPE cells. The settings on record: glycine 5 mM, LPS 5 μg/ml 6 h, ATP 25 μM. Here is the method:
as §5

“Also recorded” adds a separate entry of the source. Like-named read-outs stand apart in the source and are kept apart here. *: point of attachment. Cbz = O=C(OCc1ccccc1)*; CH2F = FC*

Consider Cbz-IETD-CH2F, for which the “pAlu-induced RPE degeneration” value was “blocked RPE degeneration” with RPE [1] and “protects” in the data set on RPE [1] (listed as Caspase-8 inhibitor). Further, in the data set with human RPE cells [2], the “pAlu-induced cytotoxicity in human RPE cells” value is given as “inhibited human RPE cell death; also recorded: protects”.

On to `COC1=C(OC)C(=O)C(CCCCCCCCCC[P+](c2ccccc2)(c2ccccc2)c2ccccc2)=C(C)C1=O` [MitoQ], for which the “Alu RNA-induced RPE degeneration” value with RPE [3] was “prevent; also recorded: blocked”.

For the molecule `CC1(C)CC(NC(=O)C[P+](c2ccccc2)(c2ccccc2)c2ccccc2)CC(C)(C)N1[O]` [Mito-TEMPO], the “Alu RNA-induced RPE degeneration” value with RPE [3] is on record as “blocked”; with RPE [3] (listed as MitoTempo), “prevent”.

For `c1ccc([I+]c2ccccc2)cc1` [DPI, diphenyliodonium], the “Alu RNA-induced RPE degeneration” value in the data set with RPE [3] is given as “blocked”. For the same molecule, the “pAlu-induced RPE degeneration” value in the data set with RPE [1] is recorded as “protects”. Moreover, the “pAlu-induced NLRP3 and IL18 mRNA upregulation” value in the data set on NLRP3 and IL18 mRNAs was “blocks; also recorded: blocked pAlu-induced NLRP3 and IL18 mRNA upregulation”.

For the molecule `NCC(=O)O` [glycine], the “human RPE cell death induced by LPS+ATP” value in the data set with human RPE cells [4] is “inhibited”; with human RPE cells [4] (listed as Glycine), “inhibits”.

On to DRQIKIWFQNRRMKWKK [control peptide], for which the “Alu RNA-induced RPE degeneration” value in the data set on RPE [3] is on record as “did not do so”.
